Drawing on BindingDB's records for doi:10.1124/jpet.105.085829 (Duquesne University, 2005), this text covers Ki for 6 compounds.

Values joined by “and” are separate entries in the source; they are usually repeats but may differ in a detail not shown here. Equal entries are not always repeated.

The test deals with Sodium-dependent dopamine transporter (Rattus norvegicus, UniProt P23977).
Sequence of Sodium-dependent dopamine transporter (P23977 whole entry): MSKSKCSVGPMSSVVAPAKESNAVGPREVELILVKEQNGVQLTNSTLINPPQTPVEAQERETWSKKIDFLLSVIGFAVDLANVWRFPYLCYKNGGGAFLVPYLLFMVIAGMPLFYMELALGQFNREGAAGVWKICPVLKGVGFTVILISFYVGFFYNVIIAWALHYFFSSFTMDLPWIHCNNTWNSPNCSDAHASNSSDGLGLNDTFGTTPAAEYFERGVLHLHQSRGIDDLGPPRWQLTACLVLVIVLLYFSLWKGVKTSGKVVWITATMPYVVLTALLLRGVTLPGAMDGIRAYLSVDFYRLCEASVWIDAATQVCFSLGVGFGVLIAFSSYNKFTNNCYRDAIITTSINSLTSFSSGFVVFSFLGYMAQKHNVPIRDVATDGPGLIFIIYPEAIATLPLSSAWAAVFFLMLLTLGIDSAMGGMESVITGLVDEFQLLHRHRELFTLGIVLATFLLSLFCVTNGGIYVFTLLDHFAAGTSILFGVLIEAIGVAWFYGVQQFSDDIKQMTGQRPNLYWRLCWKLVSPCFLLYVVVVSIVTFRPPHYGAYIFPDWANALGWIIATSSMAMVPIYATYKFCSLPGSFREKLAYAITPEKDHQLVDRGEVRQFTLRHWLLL
In the case of `O=CN1C2CCC1CC(OC(c1ccc(F)cc1)c1ccc(F)cc1)C2` (stereo unspecified) [N-CHO-4,4'-diFBZT], the inhibitory constant (Ki) – broadly, a dissociation constant, usually derived from enzyme kinetics or from competition with a known ligand – was more than 10000 nM.

On to `CN1C2CCC1CC(OC(c1ccccc1)c1ccc(C(F)(F)F)cc1)C2` (stereo unspecified) [8-Methyl-3-[phenyl-(4-trifluoromethyl-phenyl)-methoxy]-8-aza-bicyclo[3.2.1]octane], for which the inhibitory constant (Ki) was 1280 nM and 541 nM.

For `COC(=O)[C@@H]1CN(C)CC[C@@H]1c1ccc(Cl)cc1` [4-ARA-127], the Ki was 1630 nM and 3300 nM.

Turning to `COC(=O)C1C2CCC(C[C@@H]1OC(=O)c1ccccc1)O2` (stereo partly specified) [8-Oxa-norcocaine], the Ki is 9780 nM and 1560 nM.

In the case of `O[C@]1(c2ccc(Cl)cc2)c2ccccc2C2=NCCN21` [Mazanor], the Ki is 31 nM and 13 nM.

As to `CC1CN(CCCn2c3ccccc3c3ccccc32)CC(C)N1` (stereo unspecified) [9-[3-(3,5-dimethylpiperazin-1-yl)propyl]-9H-carbazole], the Ki was 643 nM and 180 nM.
